Experimental data reported in patent US7598033B2, “Method and devices for running reactions on a target plate for MALDI mass spectrometry” (University of Pennsylvania, priority 2003, dated 2009).

How the values were obtained:
[1] = molecular target: thrombin (Homo sapiens, UniProt P00734); experiment: Nanoliter thrombin/fibrinogen reaction on MALDI target, MS detection of fibrinopeptides A and B; type: biochemical; conditions: benzamidine in the nanoliter reaction, FIG. 26B
[2] = Fluorogenic substrate microarray, aerosol deposition of enzyme: boc-VPR-MCA; type: biochemical; conditions: after spray application
Method: Well characterized for over 30 years, serine proteases of the coagulation pathway in plasma were selected as a system in which to monitor the delivery of complex enzyme fluids to the microassay. Fluorogenic substrates in DMSO/glycerol were assayed to a glass slide.
After spray application, thrombin caused a 65-fold increase in fluorescence activity after conversion of the boc-VPR-MCA substrate. […] Aerosol deposition of pure tPA (10 μM) to a sensing array caused significant cleavage of the tPA, thrombin and Xa substrates, resulting in fluorescence that was 18- to 20-fold above background.

Row | inhibition of thrombin release of fibrinopeptides A and B from fibrinogen [1] | Molecule | increase in fluorescence activity after conversion of the boc-VPR-MCA substrate [2]
1 | completely inhibited | N=C(N)c1ccccc1 [Benzamidine] | –
2 | – | thrombin | 65 fold
